From patent publication US8101760B2, “Glucocorticoid receptor modulator and methods of use” (Eli Lilly and Company, priority 2007, dated 2012)
Read-outs that look alike come from different tables or passages of the source.

System: carrageenan-induced paw edema
Assay: Carrageenan-induced paw edema (CPE) model
Type: in vivo, rat
Conditions: for ED50: rat, oral gavage 2 h before carrageenan, 3 h after injection, mean of 5
Description: Carrageenans are a group of polysaccharides which can induce an acute inflammatory response in animals. Cardinal signs of inflammation including edema, hyperalgesia and erythema are developed in the injection site immediately following injection. The CPE model (Winter et al., Proc. Soc. Exp. Biol. Med. 111, 544-547, 1962) is a recognized model of inflammation and can be used to evaluate the antinflammatory effects of glucocorticoid receptor ligands.
To evaluate the anti-inflammatory effects of Compound (I), the Compound (I) is formulated in a vehicle comprising 0.5% carboxymethyl cellulose and 0.25% Tween 80 then administered orally via gavage to male Sprague-Dawley rats (180-200 g) (Harlan Industries, Indianapolis, Ind.). For comparison, prednisolone is administered orally in the same vehicle. Two hours later, 1% carrageenan in 50 μL of 0.9% pyrogen free saline is injected into the subplantar regions of the right hind paw. Rats are euthanized by CO2 at 3 hours after the carrageenan injection. Paws are removed then weighed using a microbalance. Paws are then immediately immersed into liquid nitrogen until frozen. Frozen paws are dissected by making several cuts on the paw surface then centrifuged to extract the exudates. Exudate levels of IL-1β, a cytokine generated during the inflammatory response, is then measured by ELISA (R&D Systems, Inc., Catalog No. RLB00) using standard techniques. Total paw protein is also measured using a protein assay kit (Pierce Biotechnology, Inc., Rockford, Ill., U.S.A., Catalog No. 1856210) and the absolute level of IL-1β is normalized to yield a concentration value of ng IL-1β/mg total protein.

C[C@]12C=CC(=O)C=C1CC[C@@H]1[C@@H]2[C@@H](O)C[C@@]2(C)[C@H]1CC[C@]2(O)C(=O)CO [prednisolone, reference compound]
potency relative to Compound (I) (fold less potent) (rat CPE model, similar conditions): about 5 fold | ED50 (read-out: ED50, inhibition of carrageenan induced paw weight gain): ~6.6 mg/kg | ED50 (read-out: ED50, reduction of paw exudate levels of IL-1β): < 1 mg/kg
